Measurements: ChEMBL document CHEMBL1201862, “PubChem BioAssay data set” (2004)
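Step 1: Grow cells in 96-well plates. Step 2: Expose to compound for 48 hours at 5 concentrations. Step 3: Interpolate endpoints linearly; if unreached, use highest concentration. GI50 marks 50% less growth.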 Activity calls are given as the source filed them. No stated cut-off is given here; in the data, active = GI50 up to about 1.1 µM and inactive = higher.

Experiments:
Experiment in all cases: NCI anticancer screen, dose series, 48 h
HCC 2998 = test system: HCC 2998
786-0 = test system: 786-0
CCRF-CEM = test system: CCRF-CEM
SK-MEL-5 = test system: SK-MEL-5
U-251 = test system: U-251
EKVX = test system: EKVX
SW-620 = test system: SW-620
SN12C = test system: SN12C
IGROV-1 = test system: IGROV-1
HOP-92 = test system: HOP-92
SF-295 = test system: SF-295
HOP-62 = test system: HOP-62
UO-31 = test system: UO-31
TK-10 = test system: TK-10
UACC-257 = test system: UACC-257
OVCAR-5 = test system: OVCAR-5
PC-3 = test system: PC-3
SF-539 = test system: SF-539
SK-OV-3 = test system: SK-OV-3
UACC-62 = test system: UACC-62

Row | SMILES | GI50 (HCC 2998) | GI50 (786-0) | GI50 (CCRF-CEM) | GI50 (SK-MEL-5) | GI50 (U-251) | GI50 (EKVX) | GI50 (SW-620) | GI50 (SN12C) | GI50 (IGROV-1) | GI50 (HOP-92) | GI50 (SF-295) | GI50 (HOP-62) | GI50 (UO-31) | GI50 (TK-10) | GI50 (UACC-257) | GI50 (OVCAR-5) | GI50 (PC-3) | GI50 (SF-539) | GI50 (SK-OV-3) | GI50 (UACC-62)
1 | C=C(Cl)C(Cl)(CBr)CCC(Cl)C(C)(C)Cl (stereo not drawn) | 4.52 µM (inactive) | 0.388 µM (active) | 8.63 µM (inactive) | 10.6 µM (inactive) | 0.597 µM (active) | 8.38 µM (inactive) | 1.47 µM (inactive) | 7.38 µM (inactive) | 6.84 µM (inactive) | 1.16 µM (inactive) | 3.17 µM (inactive) | 1.11 µM (active) | 2.3 µM (inactive) | 1.14 µM (inactive) | 1.57 µM (inactive) | 2.83 µM (inactive) | 1.53 µM (inactive) | 0.443 µM (active) | 25.8 µM (inactive) | 
2 | Oc1cc(Br)cc2cc(Br)cnc12 | 17.1 µM (inactive) | 13.8 µM (inactive) | 1.83 µM (inactive) | 2.48 µM (inactive) |  | 3.85 µM (inactive) | 2.24 µM (inactive) | 3.62 µM (inactive) | 1.14 µM (inactive) | 13.7 µM (inactive) | 2.64 µM (inactive) | 12.3 µM (inactive) | 2.99 µM (inactive) | 43 µM (inactive) | 3.21 µM (inactive) |  | 3.71 µM (inactive) | 3.78 µM (inactive) | 39.2 µM (inactive) | 2.05 µM (inactive)
3 | COc1ccc(CNc2nc(NC3CCCCC3)nc(NC3CCCCC3)n2)cc1 |  | 5.71 µM (inactive) | 4.63 µM (inactive) | 3.56 µM (inactive) | 4.06 µM (inactive) | 4.78 µM (inactive) | 4.19 µM (inactive) | 6.53 µM (inactive) | 4.76 µM (inactive) | 8.75 µM (inactive) | 9.66 µM (inactive) | 8.18 µM (inactive) | 3.57 µM (inactive) | 10 µM (inactive) | 13.9 µM (inactive) | 4.06 µM (inactive) | 5.15 µM (inactive) | 8.28 µM (inactive) | > 100 µM (inactive) | 6.46 µM (inactive)
4 | CC(C)(C)OC(=O)NCCCCCCC(=O)Cc1ccccc1 | > 100 µM (inactive) | > 100 µM (inactive) | > 100 µM (inactive) | 60.8 µM (inactive) | > 100 µM (inactive) | > 100 µM (inactive) | > 100 µM (inactive) | > 100 µM (inactive) | > 100 µM (inactive) | > 100 µM (inactive) | > 100 µM (inactive) | > 100 µM (inactive) | > 100 µM (inactive) | > 100 µM (inactive) | > 100 µM (inactive) | > 100 µM (inactive) | > 100 µM (inactive) |  | > 100 µM (inactive) | 
5 | COc1cccc(/C=N/NC(=O)CSCC(=O)N/N=C/c2cccc(OC)c2OC)c1OC | > 100 µM (inactive) | > 100 µM (inactive) |  | 58.3 µM (inactive) | > 100 µM (inactive) | > 100 µM (inactive) | > 100 µM (inactive) | > 100 µM (inactive) | > 100 µM (inactive) | > 100 µM (inactive) | > 100 µM (inactive) | > 100 µM (inactive) | > 100 µM (inactive) | > 100 µM (inactive) | > 100 µM (inactive) | > 100 µM (inactive) | > 100 µM (inactive) | > 100 µM (inactive) | > 100 µM (inactive) | > 100 µM (inactive)
6 | Cc1ccc(O)c(Cc2nc3ccccc3nc2-c2cccc(Cl)c2)c1 | 36.1 µM (inactive) | > 100 µM (inactive) |  | 40.2 µM (inactive) | 35.4 µM (inactive) | 34.7 µM (inactive) | 59 µM (inactive) | 55.2 µM (inactive) | 35.2 µM (inactive) | 12.5 µM (inactive) | > 100 µM (inactive) | > 100 µM (inactive) | 32.1 µM (inactive) | 88.9 µM (inactive) | 74.6 µM (inactive) | > 100 µM (inactive) | 42 µM (inactive) | 87.1 µM (inactive) | > 100 µM (inactive) | 57.9 µM (inactive)
7 | CN1[C@@H]2CCCC[C@H]2N(C)P1(=O)C(O)/C=C/c1ccccc1 (stereo partly drawn) | > 100 µM (inactive) | > 100 µM (inactive) | > 100 µM (inactive) | > 100 µM (inactive) | > 100 µM (inactive) | > 100 µM (inactive) | > 100 µM (inactive) | > 100 µM (inactive) | > 100 µM (inactive) | > 100 µM (inactive) | > 100 µM (inactive) | > 100 µM (inactive) | > 100 µM (inactive) | > 100 µM (inactive) | > 100 µM (inactive) | > 100 µM (inactive) | > 100 µM (inactive) |  | > 100 µM (inactive) | > 100 µM (inactive)
8 | O=C1CNC(=O)/C(=C/c2c[nH]c3ccccc23)N1 | > 100 µM (inactive) | > 100 µM (inactive) |  | > 100 µM (inactive) |  | > 100 µM (inactive) | > 100 µM (inactive) | > 100 µM (inactive) | > 100 µM (inactive) | > 100 µM (inactive) | > 100 µM (inactive) | > 100 µM (inactive) | > 100 µM (inactive) | > 100 µM (inactive) | > 100 µM (inactive) | > 100 µM (inactive) | > 100 µM (inactive) |  | > 100 µM (inactive) | > 100 µM (inactive)
9 | Cc1cccc2nc3cccc(C(=O)NCCC[N+](C)(CCCNC(=O)c4cccc5nc6cccc(C)c6nc45)Cc4ccc([N+](=O)[O-])n4C)c3nc12 | 11.6 µM (inactive) | 0.32 µM (active) | 0.94 µM (active) | 2.89 µM (inactive) | 0.456 µM (active) | 2.1 µM (inactive) | 0.284 µM (active) | 0.839 µM (active) | 0.703 µM (active) | > 100 µM (inactive) | 5.66 µM (inactive) | 0.809 µM (active) | 1.04 µM (active) | > 100 µM (inactive) | > 31.6 µM (inactive) | 6.68 µM (inactive) | 1.83 µM (inactive) |  | 41.5 µM (inactive) | 5.4 µM (inactive)
10 | N=C(N)NCCCC(NC(=O)OCCCCn1ccc(N)nc1=O)C(=O)O (stereo not drawn) | > 100 µM (inactive) | > 100 µM (inactive) | > 100 µM (inactive) |  | > 100 µM (inactive) | > 100 µM (inactive) | > 100 µM (inactive) | > 100 µM (inactive) | > 100 µM (inactive) | > 100 µM (inactive) | > 100 µM (inactive) | > 100 µM (inactive) | > 100 µM (inactive) | > 100 µM (inactive) | > 100 µM (inactive) | > 100 µM (inactive) | > 100 µM (inactive) | > 100 µM (inactive) | > 100 µM (inactive) | > 100 µM (inactive)
11 | CCN1CCC(O)(c2ccc(Oc3ccc(F)cc3)cc2)C(C(=O)c2ccc(Oc3ccc(F)cc3)cc2)C1 (stereo not drawn) | 11.4 µM (inactive) | 11.6 µM (inactive) | 10.1 µM (inactive) |  | 16.2 µM (inactive) | 16.6 µM (inactive) | 15.6 µM (inactive) | 14.2 µM (inactive) | 11 µM (inactive) | 11.9 µM (inactive) | 15.7 µM (inactive) | 15.8 µM (inactive) |  | 11 µM (inactive) | 15.8 µM (inactive) | 15 µM (inactive) | 13.4 µM (inactive) | 18.5 µM (inactive) | 17.8 µM (inactive) | 14.8 µM (inactive)
12 | CC1=NN(c2nc(N)nc(CSc3nc4n(c(=S)n3)CCN4)n2)C(C)(C)C1 | > 100 µM (inactive) | 93.5 µM (inactive) | > 100 µM (inactive) | > 100 µM (inactive) | 37.9 µM (inactive) | 27.4 µM (inactive) | > 100 µM (inactive) |  | 15.1 µM (inactive) | 18.6 µM (inactive) | 22.9 µM (inactive) | 14 µM (inactive) |  | 74.1 µM (inactive) | > 100 µM (inactive) |  | 30.1 µM (inactive) | 44.8 µM (inactive) | 19.1 µM (inactive) | 43.1 µM (inactive)
13 | CN1CCN(c2ncc3c(n2)sc2c(=O)n(-c4ccccc4)cnc23)CC1 | > 100 µM (inactive) | > 100 µM (inactive) | > 100 µM (inactive) | > 100 µM (inactive) | > 100 µM (inactive) |  | > 100 µM (inactive) | > 100 µM (inactive) | > 100 µM (inactive) | > 100 µM (inactive) | > 100 µM (inactive) | > 100 µM (inactive) | > 100 µM (inactive) | > 100 µM (inactive) | > 100 µM (inactive) | > 100 µM (inactive) | > 100 µM (inactive) |  | > 100 µM (inactive) | > 100 µM (inactive)
14 | C/C(=N\NC(N)=S)c1cccs1.OB(O)c1ccccc1 | > 100 µM (inactive) | > 100 µM (inactive) | > 100 µM (inactive) | > 100 µM (inactive) | > 100 µM (inactive) |  | > 100 µM (inactive) | > 100 µM (inactive) | > 100 µM (inactive) | > 100 µM (inactive) | > 100 µM (inactive) | > 100 µM (inactive) | 66.7 µM (inactive) | > 100 µM (inactive) |  | > 100 µM (inactive) | > 100 µM (inactive) | > 100 µM (inactive) | > 100 µM (inactive) | > 100 µM (inactive)
15 | c1cc2c(cc1NC1=NCCO1)CCC2 | > 10 µM (inactive) | > 10 µM (inactive) | > 10 µM (inactive) | > 10 µM (inactive) |  | > 10 µM (inactive) | 8.26 µM (inactive) | > 10 µM (inactive) | > 10 µM (inactive) | 7.5 µM (inactive) | > 10 µM (inactive) | > 10 µM (inactive) |  | > 10 µM (inactive) |  |  | > 10 µM (inactive) | 3.08 µM (inactive) | > 10 µM (inactive) | > 10 µM (inactive)
